Experiment [1] addresses T1, MALT1 (Homo sapiens, UniProt Q9UDY8).
T1 sequence (Q9UDY8 1-824): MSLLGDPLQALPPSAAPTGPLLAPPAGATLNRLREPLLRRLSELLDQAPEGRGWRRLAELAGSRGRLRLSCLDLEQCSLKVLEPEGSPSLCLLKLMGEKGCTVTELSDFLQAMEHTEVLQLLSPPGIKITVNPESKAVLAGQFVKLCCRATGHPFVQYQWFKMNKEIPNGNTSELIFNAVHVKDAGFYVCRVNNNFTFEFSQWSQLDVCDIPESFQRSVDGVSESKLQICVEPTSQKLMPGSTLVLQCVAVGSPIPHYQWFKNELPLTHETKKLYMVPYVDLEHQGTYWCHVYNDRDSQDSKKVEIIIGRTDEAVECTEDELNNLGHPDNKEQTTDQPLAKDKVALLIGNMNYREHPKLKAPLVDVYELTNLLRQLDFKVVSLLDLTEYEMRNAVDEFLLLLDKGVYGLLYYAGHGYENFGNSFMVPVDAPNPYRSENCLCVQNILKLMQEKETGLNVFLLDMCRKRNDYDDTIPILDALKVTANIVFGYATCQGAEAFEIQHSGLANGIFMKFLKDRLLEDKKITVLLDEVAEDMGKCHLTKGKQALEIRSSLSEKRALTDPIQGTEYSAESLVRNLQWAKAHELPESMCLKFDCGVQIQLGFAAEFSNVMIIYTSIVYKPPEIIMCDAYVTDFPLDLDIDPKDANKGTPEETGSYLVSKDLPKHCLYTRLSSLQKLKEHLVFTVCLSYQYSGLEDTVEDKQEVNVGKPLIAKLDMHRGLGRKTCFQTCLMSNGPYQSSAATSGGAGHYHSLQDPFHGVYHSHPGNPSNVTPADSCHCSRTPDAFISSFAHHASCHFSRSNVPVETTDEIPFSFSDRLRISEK
The experiment can be described thus: Mechanistic validation of MALT1 degradation in wild type and CRBN knockout 293T cells (Western blot). Type of experiment: cell-based. The note with it: wild type vs CRBN knockout 293T cells, 10 μM, 24 hours; FIG. 2. Details: endogenous in cells. How it is done: Wild type and CRBN knockout 293T cells were treated with 10 μM of Example 1 or vehicle for 24 hours, and protein lysates were collected. The protein was analyzed by Western blot and immunoassayed for MALT1, CRBN, and Actin.
Wild type and CRBN knockout 293T cells were treated with 10 μM of Example 1 or vehicle for 24 hours, and protein lysates were collected. 80 μg of protein were analyzed by Western blot and immunoassayed for MALT1, CRBN and Actin.

Experiment [2] concerns the target T1, MALT1. Nature of the experiment: MALT1 degradation assay (Western blot) in OCI-Ly3 cells. Details: endogenous in cells; host or cells: OCI-Ly3. The settings on record: 48 hours, normalized to Actin, relative to vehicle treated cells. The experiment is classed as cell-based. The protocol:
In the experiments, OCI-Ly3 cells were grown for 6 hours in the presence of the indicated concentrations of Examples 1-6, 9, and 10. Proteins were extracted, analyzed by Western blot, and membranes were immunoblotted for MALT1, CRBN, and Actin. Table 3 provides the results of experimental data obtained from the example compounds of the present disclosure. In particular, OCI-Ly3 cells were grown for 48 hours in the presence of the indicated concentrations of Examples 1-19. Proteins were extracted, analyzed by Western blot, and membranes were immunoblotted for MALT1, CRBN, and Actin. Western blot bands were quantified using Image Lab software. Results were normalized to Actin expression and presented as % MALT1 degradation relative to vehicle treated cells.
(Immunoblotting shows a protein as a band on a membrane.)

Setting [3] is: read-out: % MALT1 Degradation at 1 μM.

Molecules are shown by their SMILES. Like-named read-outs stand apart in the source and are kept apart here.

For the molecule `C[C@@H](c1c(NC(=O)Nc2cnc(-n3nccn3)c(Cl)c2)cnc2cc(Cl)nn12)N(C)C(=O)CCOCCOCCOCCOCCNc1cccc2c1C(=O)N(C1CCC(=O)NC1=O)C2=O` (stereo partly drawn) [Example 1, N—((S)-1-(2-Chloro-6-(3-(5-chloro-6-(2H-1,2,3-triazol-2-yl)pyridin-3-yl)ureido)pyrazolo[1,5-a]pyrimidin-7-yl)ethyl)-1-((2-(2,6-dioxopiperidin-3-yl)-1,3-dioxoisoindolin-4-yl)amino)-N-methyl-3,6,9,12-tetraoxapentadecan-15-amide], in experiment [1], the “CRBN-dependent MALT1 degradation” value is on record as “promoted CRBN-dependent MALT1 degradation”. Further, the % MALT1 degradation at 1 µM in experiment [2] (setting [3]) is 31 to 50%. For `CO[C@@H](C)c1c(NC(=O)Nc2cc(Cl)cnc2OCCNC(=O)CCCCCCCCOc2cccc3c2C(=O)N(C2CCC(=O)NC2=O)C3=O)cnc2cc(Cl)nn12` (stereo partly drawn) [Example 16, N-(2-((5-Chloro-3-(3-(2-chloro-7-((S)-1-methoxyethyl)pyrazolo[1,5-a]pyrimidin-6-yl)ureido)pyridin-2-yl)oxy)ethyl)-9-((2-(2,6-dioxopiperidin-3-yl)-1,3-dioxoisoindolin-4-yl)oxy)nonanamide], the “% MALT1 degradation at 1 µM” value in experiment [2] was “no degradation”.

In the case of `C[C@@H](c1c(NC(=O)Nc2cnc(-n3nccn3)c(Cl)c2)cnc2cc(Cl)nn12)N(C)C(=O)CCOCCOCCOCCN1CCN(Cc2ccc(COc3cccc4c3CN([C@H]3CCC(=O)NC3=O)C4=O)cc2)CC1` [Example 17, N-((S)-1-(2-Chloro-6-(3-(5-chloro-6-(2H-1,2,3-triazol-2-yl)pyridin-3-yl)ureido)pyrazolo[1,5-a]pyrimidin-7-yl)ethyl)-3-(2-(2-(2-(4-(4-(((2-((S)-2,6-dioxopiperidin-3-yl)-1-oxoisoindolin-4-yl)oxy)methyl)benzyl)piperazin-1-yl)ethoxy)ethoxy)ethoxy)-N-methylpropanamide], the % MALT1 degradation at 1 µM in experiment [2] (setting [3]) was more than 50%. With `CO[C@@H](C)c1c(NC(=O)Nc2cnc(-n3cc(CNC(=O)CCOCCOCCOCCN4CCN(Cc5ccc(COc6cccc7c6CN([C@H]6CCC(=O)NC6=O)C7=O)cc5)CC4)cn3)c(Cl)c2)cnc2cc(Cl)nn12` [Example 18, N-((1-(3-Chloro-5-(3-(2-chloro-7-((S)-1-methoxyethyl)pyrazolo[1,5-a]pyrimidin-6-yl)ureido)pyridin-2-yl)-1H-pyrazol-4-yl)methyl)-3-(2-(2-(2-(4-(4-(((2-((5)-2,6-dioxopiperidin-3-yl)-1-oxoisoindolin-4-yl)oxy)methyl)benzyl)piperazin-1-yl)ethoxy)ethoxy)ethoxy)propanamide], the “% MALT1 degradation at 1 µM” value in experiment [2] was more than 50%. For `CO[C@@H](C)c1c(NC(=O)Nc2cc(Cl)cnc2OCCNC(=O)CCOCCOCCOCCN2CCN(Cc3ccc(COc4cccc5c4CN([C@H]4CCC(=O)NC4=O)C5=O)cc3)CC2)cnc2cc(Cl)nn12` [Example 19, N-(2-((5-Chloro-3-(3-(2-chloro-7-((S)-1-methoxyethyl)pyrazolo[1,5-a]pyrimidin-6-yl)ureido)pyridin-2-yl)oxy)ethyl)-3-(2-(2-(2-(4-(4-(((2-((S)-2,6-dioxopiperidin-3-yl)-1-oxoisoindolin-4-yl)oxy)methyl)benzyl)piperazin-1-yl)ethoxy)ethoxy)ethoxy)propanamide], in experiment [2] (setting [3]), the % MALT1 degradation at 1 µM was more than 50%.

Values taken from US10689366B2, “Compounds for MALT1 degredation” (Cornell University, priority 2016, dated 2020).
